# From ChEMBL document CHEMBL4507320, “Data for DCP probe NVS-MALT1” (2021)
# How the values were obtained:
# [1] = target: Activin receptor type-1 (Homo sapiens) (UniProt Q04771); details: Compound concentration 1000.0 nM
# [2] = target: Ephrin type-A receptor 2 (Homo sapiens) (UniProt P29317); details: Compound concentration 1000.0 nM
# [3] = target: Serine/threonine-protein kinase TAO3 (Homo sapiens) (UniProt Q9H2K8); details: Compound concentration 1000.0 nM
# [4] = target: Mitogen-activated protein kinase 13 (Homo sapiens) (UniProt O15264); details: Compound concentration 1000.0 nM
# [5] = target: Mitogen-activated protein kinase 4 (Homo sapiens) (UniProt P31152); details: Compound concentration 1000.0 nM
# Sequence of Mitogen-activated protein kinase 4 (Homo sapiens) (P31152 whole entry): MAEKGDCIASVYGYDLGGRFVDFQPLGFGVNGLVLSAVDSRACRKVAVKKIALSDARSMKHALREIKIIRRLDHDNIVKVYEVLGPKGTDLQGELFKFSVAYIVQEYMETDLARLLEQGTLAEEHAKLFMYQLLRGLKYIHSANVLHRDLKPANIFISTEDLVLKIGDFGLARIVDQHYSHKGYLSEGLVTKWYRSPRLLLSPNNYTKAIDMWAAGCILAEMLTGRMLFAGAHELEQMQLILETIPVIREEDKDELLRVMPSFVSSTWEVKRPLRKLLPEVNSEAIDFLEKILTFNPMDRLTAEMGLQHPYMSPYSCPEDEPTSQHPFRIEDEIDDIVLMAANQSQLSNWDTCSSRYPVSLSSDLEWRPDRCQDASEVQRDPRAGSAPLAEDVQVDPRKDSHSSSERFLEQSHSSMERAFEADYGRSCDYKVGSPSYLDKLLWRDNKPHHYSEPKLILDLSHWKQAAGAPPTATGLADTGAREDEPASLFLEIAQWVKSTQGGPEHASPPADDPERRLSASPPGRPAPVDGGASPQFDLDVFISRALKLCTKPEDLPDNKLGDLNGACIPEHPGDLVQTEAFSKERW
# [6] = tested on: Mast/stem cell growth factor receptor Kit (Homo sapiens), P10721 [V559D,V654A]; details: Compound concentration 1000.0 nM
# [7] = target: Vascular endothelial growth factor receptor 2 (Homo sapiens) (UniProt P35968); details: Compound concentration 1000.0 nM
# [8] = target: Proto-oncogene tyrosine-protein kinase receptor Ret (Homo sapiens) (UniProt P07949); details: Compound concentration 1000.0 nM
# [9] = target: Casein kinase I isoform alpha-like (Homo sapiens) (UniProt Q8N752); details: Compound concentration 1000.0 nM
# Sequence of Casein kinase I isoform alpha-like (Homo sapiens) (Q8N752 whole entry, canonical isoform): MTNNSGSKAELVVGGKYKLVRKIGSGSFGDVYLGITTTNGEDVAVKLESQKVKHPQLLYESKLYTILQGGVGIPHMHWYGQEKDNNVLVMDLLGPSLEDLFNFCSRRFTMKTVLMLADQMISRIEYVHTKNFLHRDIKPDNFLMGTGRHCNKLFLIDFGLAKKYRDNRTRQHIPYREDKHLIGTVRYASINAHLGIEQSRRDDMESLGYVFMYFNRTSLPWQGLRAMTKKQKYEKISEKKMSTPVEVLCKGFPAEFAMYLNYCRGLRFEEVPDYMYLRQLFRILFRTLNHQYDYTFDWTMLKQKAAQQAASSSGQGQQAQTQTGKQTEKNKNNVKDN
# [10] = tested on: Phosphatidylinositol 4,5-bisphosphate 3-kinase catalytic subunit alpha isoform (Homo sapiens), P42336 [Q546K]; details: Compound concentration 1000.0 nM
# [11] = target: Serine/threonine-protein kinase WNK2 (Homo sapiens) (UniProt Q9Y3S1); details: Compound concentration 1000.0 nM
# [12] = target: Tyrosine-protein kinase ZAP-70 (Homo sapiens) (UniProt P43403); details: Compound concentration 1000.0 nM
# [13] = target: Ribosomal protein S6 kinase alpha-6 (Homo sapiens) (UniProt Q9UK32); details: Compound concentration 1000.0 nM
# [14] = target: Inhibitor of nuclear factor kappa-B kinase subunit epsilon (Homo sapiens) (UniProt Q14164); details: Compound concentration 1000.0 nM
# [15] = target: Platelet-derived growth factor receptor beta (Homo sapiens) (UniProt P09619); details: Compound concentration 1000.0 nM
# [16] = tested on: Tyrosine-protein kinase ABL1 (Homo sapiens), P00519 [T315I]; details: Compound concentration 1000.0 nM
# [17] = target: Tyrosine-protein kinase Fgr (Homo sapiens) (UniProt P09769); details: Compound concentration 1000.0 nM
# [18] = target: Serine/threonine-protein kinase VRK2 (Homo sapiens) (UniProt Q86Y07); details: Compound concentration 1000.0 nM
# [19] = target: Aurora kinase C (Homo sapiens) (UniProt Q9UQB9); details: Compound concentration 1000.0 nM
# [20] = target: 5'-AMP-activated protein kinase catalytic subunit alpha-1 (Homo sapiens) (UniProt Q13131); details: Compound concentration 1000.0 nM
# Sequence of 5'-AMP-activated protein kinase catalytic subunit alpha-1 (Homo sapiens) (Q13131 whole entry, looked up): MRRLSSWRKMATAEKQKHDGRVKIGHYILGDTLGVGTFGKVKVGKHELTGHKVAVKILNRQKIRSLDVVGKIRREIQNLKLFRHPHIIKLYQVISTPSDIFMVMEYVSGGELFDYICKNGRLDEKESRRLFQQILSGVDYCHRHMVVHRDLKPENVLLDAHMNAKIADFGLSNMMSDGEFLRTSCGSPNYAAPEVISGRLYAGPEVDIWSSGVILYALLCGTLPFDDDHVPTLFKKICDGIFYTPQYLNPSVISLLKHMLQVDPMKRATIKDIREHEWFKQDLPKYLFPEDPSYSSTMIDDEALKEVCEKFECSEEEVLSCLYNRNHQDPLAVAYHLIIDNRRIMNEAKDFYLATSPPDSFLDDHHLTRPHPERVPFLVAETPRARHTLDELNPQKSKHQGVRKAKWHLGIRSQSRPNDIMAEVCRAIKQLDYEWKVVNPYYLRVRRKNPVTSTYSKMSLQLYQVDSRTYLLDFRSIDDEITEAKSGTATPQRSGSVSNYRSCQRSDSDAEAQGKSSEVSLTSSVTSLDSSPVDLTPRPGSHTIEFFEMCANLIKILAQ
# [21] = target: Serine/threonine-protein kinase PLK4 (Homo sapiens) (UniProt O00444); details: Compound concentration 1000.0 nM
# [22] = target: Sigma non-opioid intracellular receptor 1 (Homo sapiens, UniProt Q99720); details: Compound concentration 10.0 uM
# Sequence of Sigma non-opioid intracellular receptor 1 (Q99720 whole entry): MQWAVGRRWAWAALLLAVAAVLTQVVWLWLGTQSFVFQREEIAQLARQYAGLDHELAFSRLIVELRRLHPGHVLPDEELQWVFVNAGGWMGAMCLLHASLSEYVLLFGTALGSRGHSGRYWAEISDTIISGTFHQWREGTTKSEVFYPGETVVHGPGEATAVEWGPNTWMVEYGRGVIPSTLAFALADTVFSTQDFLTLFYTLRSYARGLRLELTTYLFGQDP
# [23] = target: Uncharacterized serine/threonine-protein kinase SBK3 (Homo sapiens) (UniProt P0C264); details: Compound concentration 1000.0 nM
# Sequence of Uncharacterized serine/threonine-protein kinase SBK3 (Homo sapiens) (P0C264 whole entry): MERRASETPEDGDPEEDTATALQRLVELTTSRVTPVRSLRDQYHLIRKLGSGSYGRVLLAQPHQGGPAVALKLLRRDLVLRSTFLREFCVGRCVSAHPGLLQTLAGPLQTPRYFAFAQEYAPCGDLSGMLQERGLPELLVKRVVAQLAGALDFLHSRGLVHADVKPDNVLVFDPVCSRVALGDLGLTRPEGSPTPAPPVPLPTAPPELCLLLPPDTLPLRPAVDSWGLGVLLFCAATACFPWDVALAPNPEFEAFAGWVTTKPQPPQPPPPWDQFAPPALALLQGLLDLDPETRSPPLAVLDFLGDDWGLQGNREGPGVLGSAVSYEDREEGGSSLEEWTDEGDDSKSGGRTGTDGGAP
# [24] = target: MAP/microtubule affinity-regulating kinase 4 (Homo sapiens) (UniProt Q96L34); details: Compound concentration 1000.0 nM
# Sequence of MAP/microtubule affinity-regulating kinase 4 (Homo sapiens) (Q96L34 whole entry): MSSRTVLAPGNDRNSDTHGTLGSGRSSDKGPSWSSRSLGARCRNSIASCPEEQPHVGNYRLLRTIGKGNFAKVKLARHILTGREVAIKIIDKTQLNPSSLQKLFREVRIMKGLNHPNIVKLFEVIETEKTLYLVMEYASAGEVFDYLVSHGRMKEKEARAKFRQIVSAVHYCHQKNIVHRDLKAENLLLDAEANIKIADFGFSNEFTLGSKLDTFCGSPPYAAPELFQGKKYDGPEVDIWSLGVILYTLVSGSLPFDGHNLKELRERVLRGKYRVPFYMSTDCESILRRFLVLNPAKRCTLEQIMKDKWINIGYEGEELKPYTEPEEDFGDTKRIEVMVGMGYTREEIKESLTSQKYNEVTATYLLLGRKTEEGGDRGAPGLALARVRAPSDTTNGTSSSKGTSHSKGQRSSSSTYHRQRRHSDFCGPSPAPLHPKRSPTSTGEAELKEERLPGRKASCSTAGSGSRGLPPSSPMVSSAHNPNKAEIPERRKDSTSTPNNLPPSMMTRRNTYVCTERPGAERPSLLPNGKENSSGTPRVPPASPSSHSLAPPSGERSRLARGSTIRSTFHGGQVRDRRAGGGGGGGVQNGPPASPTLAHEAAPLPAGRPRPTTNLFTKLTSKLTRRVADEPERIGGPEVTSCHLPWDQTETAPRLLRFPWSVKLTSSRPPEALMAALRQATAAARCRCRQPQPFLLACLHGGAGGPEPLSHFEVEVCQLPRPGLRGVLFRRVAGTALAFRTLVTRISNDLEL
# [25] = target: Serine/threonine-protein kinase Nek3 (Homo sapiens) (UniProt P51956); details: Compound concentration 1000.0 nM
# [26] = target: Tyrosine-protein kinase receptor UFO (Homo sapiens) (UniProt P30530); details: Compound concentration 1000.0 nM
# [27] = target: Mitogen-activated protein kinase 14 (Homo sapiens) (UniProt Q16539); details: Compound concentration 1000.0 nM
# [28] = target: Atypical kinase COQ8A, mitochondrial (Homo sapiens) (UniProt Q8NI60); details: Compound concentration 1000.0 nM
# [29] = target: Serine/threonine-protein kinase Nek9 (Homo sapiens) (UniProt Q8TD19); details: Compound concentration 1000.0 nM
# [30] = target: Interleukin-1 receptor-associated kinase 4 (Homo sapiens) (UniProt Q9NWZ3); details: Compound concentration 1000.0 nM
# Sequence of Interleukin-1 receptor-associated kinase 4 (Homo sapiens) (Q9NWZ3 whole entry): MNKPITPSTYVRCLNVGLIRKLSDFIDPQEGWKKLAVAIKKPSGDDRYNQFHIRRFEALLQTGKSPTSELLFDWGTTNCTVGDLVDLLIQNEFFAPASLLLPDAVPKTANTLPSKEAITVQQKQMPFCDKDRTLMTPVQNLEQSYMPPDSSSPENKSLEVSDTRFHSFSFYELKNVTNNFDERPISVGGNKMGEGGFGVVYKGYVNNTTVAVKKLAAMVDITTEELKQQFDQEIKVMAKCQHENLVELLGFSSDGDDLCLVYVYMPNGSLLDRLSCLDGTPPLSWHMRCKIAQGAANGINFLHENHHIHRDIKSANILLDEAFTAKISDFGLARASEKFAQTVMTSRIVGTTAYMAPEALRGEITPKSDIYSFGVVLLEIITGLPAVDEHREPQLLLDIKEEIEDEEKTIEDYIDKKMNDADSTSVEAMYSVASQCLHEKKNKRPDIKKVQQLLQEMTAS
# [31] = target: Fibroblast growth factor receptor 4 (Homo sapiens) (UniProt P22455); details: Compound concentration 1000.0 nM
# [32] = tested on: Proto-oncogene tyrosine-protein kinase receptor Ret (Homo sapiens), P07949 [M918T]; details: Compound concentration 1000.0 nM
# [33] = target: Insulin receptor-related protein (Homo sapiens) (UniProt P14616); details: Compound concentration 1000.0 nM
# [34] = target: Leukocyte tyrosine kinase receptor (Homo sapiens) (UniProt P29376); details: Compound concentration 1000.0 nM
# Sequence of Leukocyte tyrosine kinase receptor (Homo sapiens) (P29376 whole entry): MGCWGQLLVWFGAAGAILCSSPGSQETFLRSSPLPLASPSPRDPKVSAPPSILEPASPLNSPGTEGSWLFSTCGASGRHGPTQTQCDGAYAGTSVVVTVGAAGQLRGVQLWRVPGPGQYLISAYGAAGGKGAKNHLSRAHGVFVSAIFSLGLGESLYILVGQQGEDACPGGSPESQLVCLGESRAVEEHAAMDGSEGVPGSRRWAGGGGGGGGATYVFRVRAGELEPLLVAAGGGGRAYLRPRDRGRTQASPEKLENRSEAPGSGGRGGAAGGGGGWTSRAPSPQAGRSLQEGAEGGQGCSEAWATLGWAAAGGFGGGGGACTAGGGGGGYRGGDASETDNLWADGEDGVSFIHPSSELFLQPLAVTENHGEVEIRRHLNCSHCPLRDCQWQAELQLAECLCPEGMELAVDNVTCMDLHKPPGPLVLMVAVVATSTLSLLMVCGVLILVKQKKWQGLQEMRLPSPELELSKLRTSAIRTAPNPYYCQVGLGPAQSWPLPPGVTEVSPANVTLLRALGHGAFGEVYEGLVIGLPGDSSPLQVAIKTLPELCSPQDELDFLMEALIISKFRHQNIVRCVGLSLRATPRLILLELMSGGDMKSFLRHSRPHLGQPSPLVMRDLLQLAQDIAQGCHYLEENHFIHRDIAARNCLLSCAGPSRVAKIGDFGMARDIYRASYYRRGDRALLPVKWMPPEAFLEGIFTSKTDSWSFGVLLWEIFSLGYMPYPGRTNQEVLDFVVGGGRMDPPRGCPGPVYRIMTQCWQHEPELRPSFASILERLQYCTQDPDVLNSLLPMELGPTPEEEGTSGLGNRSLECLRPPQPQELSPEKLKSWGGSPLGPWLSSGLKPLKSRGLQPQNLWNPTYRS
# [35] = target: Serine/threonine-protein kinase Sgk3 (Homo sapiens) (UniProt Q96BR1); details: Compound concentration 1000.0 nM
# [36] = tested on: Proto-oncogene tyrosine-protein kinase receptor Ret (Homo sapiens), P07949 [V804M]; details: Compound concentration 1000.0 nM
# [37] = target: Maternal embryonic leucine zipper kinase (Homo sapiens) (UniProt Q14680); details: Compound concentration 1000.0 nM
# [38] = target: LIM domain kinase 2 (Homo sapiens) (UniProt P53671); details: Compound concentration 1000.0 nM
# [39] = target: Calcium/calmodulin-dependent protein kinase type 1B (Homo sapiens) (UniProt Q6P2M8); details: Compound concentration 1000.0 nM
# Sequence of Calcium/calmodulin-dependent protein kinase type 1B (Homo sapiens) (Q6P2M8 whole entry): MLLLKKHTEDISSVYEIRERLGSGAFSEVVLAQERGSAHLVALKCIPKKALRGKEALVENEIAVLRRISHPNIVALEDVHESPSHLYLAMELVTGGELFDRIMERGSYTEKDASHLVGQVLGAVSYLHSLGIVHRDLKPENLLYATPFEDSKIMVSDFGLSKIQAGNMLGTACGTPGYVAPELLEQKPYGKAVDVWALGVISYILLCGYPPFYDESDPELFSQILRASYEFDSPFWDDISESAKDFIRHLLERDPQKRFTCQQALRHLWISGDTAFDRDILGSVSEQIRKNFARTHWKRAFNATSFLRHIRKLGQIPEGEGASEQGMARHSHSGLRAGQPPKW
# [40] = target: Cyclin-dependent kinase-like 5 (Homo sapiens) (UniProt O76039); details: Compound concentration 1000.0 nM
# [41] = target: Tyrosine-protein kinase TXK (Homo sapiens) (UniProt P42681); details: Compound concentration 1000.0 nM
# [42] = target: Cyclin-dependent kinase 18 (Homo sapiens) (UniProt Q07002); details: Compound concentration 1000.0 nM
# [43] = target: Casein kinase I isoform gamma-3 (Homo sapiens) (UniProt Q9Y6M4); details: Compound concentration 1000.0 nM
# [44] = target: Ephrin type-A receptor 4 (Homo sapiens) (UniProt P54764); details: Compound concentration 1000.0 nM
# [45] = target: RAC-beta serine/threonine-protein kinase (Homo sapiens) (UniProt P31751); details: Compound concentration 1000.0 nM
# Sequence of Activin receptor type-1 (Homo sapiens) (Q04771 whole entry): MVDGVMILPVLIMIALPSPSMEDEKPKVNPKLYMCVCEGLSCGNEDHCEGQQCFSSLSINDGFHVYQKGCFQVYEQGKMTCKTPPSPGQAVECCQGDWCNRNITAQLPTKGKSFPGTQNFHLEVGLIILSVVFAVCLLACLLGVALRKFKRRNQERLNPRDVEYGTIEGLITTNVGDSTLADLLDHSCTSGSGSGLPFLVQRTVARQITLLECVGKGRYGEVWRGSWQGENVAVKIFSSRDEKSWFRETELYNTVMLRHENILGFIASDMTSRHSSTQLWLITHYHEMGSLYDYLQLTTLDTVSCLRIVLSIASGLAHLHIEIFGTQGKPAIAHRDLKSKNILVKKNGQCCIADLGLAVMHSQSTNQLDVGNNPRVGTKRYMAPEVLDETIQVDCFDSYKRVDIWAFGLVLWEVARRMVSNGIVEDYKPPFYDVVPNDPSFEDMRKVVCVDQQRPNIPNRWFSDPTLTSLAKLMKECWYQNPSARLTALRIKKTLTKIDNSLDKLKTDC
smiles,measurement,setting,value
CO[C@@H](C)c1c(Nc2ccc([C@H](N(C)C(=O)C3CCS(=O)(=O)CC3)C(F)(F)F)cc2)cnc2cc(Cl)nn12 [NVS-MALT1],residual activity,[1],94%
same,residual activity,[2],100%
same,residual activity,[3],100%
same,residual activity,[4],100%
same,residual activity,[5],94%
same,residual activity,[6],92%
same,residual activity,[7],100%
same,residual activity,[8],91%
same,residual activity,[9],65%
same,residual activity,[10],100%
same,residual activity,[11],98%
same,residual activity,[12],100%
same,residual activity,[13],100%
same,residual activity,[14],100%
same,residual activity,[15],100%
same,residual activity,[16],100%
same,residual activity,[17],100%
same,residual activity,[18],100%
same,residual activity,[19],77%
same,residual activity,[20],99%
same,residual activity,[21],100%
same,inhibition,[22],18.8%
same,residual activity,[23],84%
same,residual activity,[24],76%
same,residual activity,[25],40%
same,residual activity,[26],76%
same,residual activity,[27],88%
same,residual activity,[28],100%
same,residual activity,[29],77%
same,residual activity,[30],88%
same,residual activity,[31],85%
same,residual activity,[32],95%
same,residual activity,[33],94%
same,residual activity,[34],98%
same,residual activity,[35],100%
same,residual activity,[36],94%
same,residual activity,[37],59%
same,residual activity,[38],91%
same,residual activity,[39],100%
same,residual activity,[40],95%
same,residual activity,[41],87%
same,residual activity,[42],93%
same,residual activity,[43],72%
same,residual activity,[44],83%
same,residual activity,[45],99%
CO[C@@H](C)c1c(Nc2ccc([C@@H](N(C)C(=O)C3CCS(=O)(=O)CC3)C(F)(F)F)cc2)cnc2cc(Cl)nn12 [NVS-MALT1-C],residual activity,[1],85%
same,residual activity,[2],83%
same,residual activity,[3],100%
same,residual activity,[4],100%
same,residual activity,[5],100%
same,residual activity,[6],88%
same,residual activity,[7],95%
same,residual activity,[8],91%
same,residual activity,[9],84%
same,residual activity,[10],100%
same,residual activity,[11],100%
same,residual activity,[12],100%
same,residual activity,[13],100%
same,residual activity,[14],100%
same,residual activity,[15],100%
same,residual activity,[16],100%
same,residual activity,[17],100%
same,residual activity,[18],100%
same,residual activity,[19],85%
same,residual activity,[20],92%
same,residual activity,[21],100%
same,inhibition,[22],56.8%
same,residual activity,[23],81%
same,residual activity,[24],89%
same,residual activity,[25],61%
same,residual activity,[26],77%
same,residual activity,[27],83%
same,residual activity,[28],100%
same,residual activity,[29],90%
same,residual activity,[30],89%
same,residual activity,[31],92%
same,residual activity,[32],85%
same,residual activity,[33],89%
same,residual activity,[34],95%
same,residual activity,[35],100%
same,residual activity,[36],87%
same,residual activity,[37],52%
same,residual activity,[38],87%
same,residual activity,[39],100%
same,residual activity,[40],89%
same,residual activity,[41],84%
same,residual activity,[42],99%
same,residual activity,[43],71%
same,residual activity,[44],100%
same,residual activity,[45],91%
